Data: the NIST ThermoML archive (doi:10.1016/j.jct.2004.05.008)

Legend:
[1] = Crystal
[2] = Molar enthalpy of transition or fusion; details: Crystal
[3] = molar heat capacity at constant pressure; details: 101.33 kPa

O=C1OC(=O)C2=C1CCCC2 [3,4,5,6-tetrahydrophthalic anhydride]
Details	Molar enthalpy of transition or fusion [kcal/mol]	Triple point temperature [K]
[1]	–	343.46
[2]	2.839	–

[3]
Details	molar heat capacity at constant pressure [J/K/mol]
80.34 K, Crystal	56.23
83.47 K, Crystal	56.18
86.53 K, Crystal	56.31
89.58 K, Crystal	56.4
92.48 K, Crystal	56.87
95.3 K, Crystal	57.18
98.08 K, Crystal	57.46
100.82 K, Crystal	57.84
103.56 K, Crystal	57.96
106.09 K, Crystal	58.31
108.63 K, Crystal	58.53
111.12 K, Crystal	58.74
113.61 K, Crystal	59.12
116.02 K, Crystal	59.31
118.43 K, Crystal	59.66
120.75 K, Crystal	60.05
123.08 K, Crystal	60.42
125.35 K, Crystal	60.99
127.64 K, Crystal	61.14
129.84 K, Crystal	61.87
132.12 K, Crystal	62.27
134.33 K, Crystal	62.87
136.53 K, Crystal	63.57
138.65 K, Crystal	64.15
140.81 K, Crystal	64.74
142.92 K, Crystal	65.78
145.08 K, Crystal	66.49
147.12 K, Crystal	67.22
149.15 K, Crystal	68.03
151.27 K, Crystal	69
153.3 K, Crystal	69.87
155.3 K, Crystal	70.76
157.37 K, Crystal	71.32
159.37 K, Crystal	72.03
161.36 K, Crystal	72.91
163.27 K, Crystal	73.95
165.22 K, Crystal	74.97
167.13 K, Crystal	76.01
169.12 K, Crystal	76.73
171.05 K, Crystal	77.91
172.94 K, Crystal	78.5
174.85 K, Crystal	79.78
176.72 K, Crystal	80.51
178.63 K, Crystal	81.53
180.46 K, Crystal	82.71
182.28 K, Crystal	83.6
184.11 K, Crystal	84.61
185.95 K, Crystal	85.45
187.77 K, Crystal	86.62
189.63 K, Crystal	87.81
191.38 K, Crystal	88.82
193.21 K, Crystal	89.85
194.95 K, Crystal	91.18
196.74 K, Crystal	92.52
198.56 K, Crystal	93.84
200.32 K, Crystal	95.12
202.04 K, Crystal	96
203.79 K, Crystal	97.45
205.5 K, Crystal	99.08
207.28 K, Crystal	100.34
208.94 K, Crystal	101.59
210.65 K, Crystal	102.87
212.31 K, Crystal	103.87
214.01 K, Crystal	105.32
215.67 K, Crystal	106.26
217.29 K, Crystal	107.56
218.95 K, Crystal	108.78
220.53 K, Crystal	109.96
222.27 K, Crystal	111.19
223.72 K, Crystal	112.09
225.46 K, Crystal	113.46
227.04 K, Crystal	114.91
228.58 K, Crystal	116.07
230.24 K, Crystal	117.61
231.74 K, Crystal	119.05
233.19 K, Crystal	120.59
234.7 K, Crystal	122.14
236.22 K, Crystal	123.06
237.68 K, Crystal	124.72
239.17 K, Crystal	126.14
240.66 K, Crystal	127.28
242.12 K, Crystal	128.82
243.56 K, Crystal	131.28
244.92 K, Crystal	131.95
246.4 K, Crystal	132.94
247.8 K, Crystal	133.95
249.31 K, Crystal	135.13
250.75 K, Crystal	136.4
252.21 K, Crystal	137.63
253.66 K, Crystal	138.64
255.1 K, Crystal	140.01
256.48 K, Crystal	141.43
257.94 K, Crystal	143.17
259.38 K, Crystal	144.54
260.76 K, Crystal	146.26
262.22 K, Crystal	147.86
263.56 K, Crystal	149.6
264.98 K, Crystal	151.29
266.44 K, Crystal	153.66
267.8 K, Crystal	155.02
269.17 K, Crystal	156.54
270.62 K, Crystal	158.31
271.99 K, Crystal	160.29
273.83 K, Crystal	162.61
276.06 K, Crystal	165.27
278.26 K, Crystal	168.2
280.47 K, Crystal	170.86
282.77 K, Crystal	174.18
285 K, Crystal	177.2
287.13 K, Crystal	180
289.24 K, Crystal	183.15
291.4 K, Crystal	185.52
293.54 K, Crystal	188.07
295.62 K, Crystal	190.23
297.76 K, Crystal	193.49
299.9 K, Crystal	196.12
302.04 K, Crystal	198.91
304.16 K, Crystal	201.6
306.28 K, Crystal	204.33
308.44 K, Crystal	208.09
310.59 K, Crystal	210.93
312.73 K, Crystal	214.84
314.77 K, Crystal	218
316.97 K, Crystal	220.39
319 K, Crystal	224.36
321.06 K, Crystal	227.34
323.12 K, Crystal	231.9
325.11 K, Crystal	237.01
327.12 K, Crystal	241.19
329.09 K, Crystal	246.67
330.99 K, Crystal	261.9
346.46 K, Liquid	275.09
348.18 K, Liquid	275.94
350 K, Liquid	277.07
351.67 K, Liquid	278.18
353.41 K, Liquid	279.59
355.08 K, Liquid	280.65
356.67 K, Liquid	281.82
360.3 K, Liquid	284.63
